Values joined by “and” are separate entries in the source; they are usually repeats but may differ in a detail not shown here. Equal entries are not always repeated. Where only a bound is given, the exact number is not on record here.

Type in all cases: cell-based
One assay has as its system Saccharomyces cerevisiae. As to the kind of experiment: Sterilization test in contaminated apple juice against Saccharomyces cerevisiae. As to Visual evaluation after 4 weeks: key: − = not fermented; + = fermented. The conditions noted are these: for Germ number after 24 h (carried out in duplicate): contact time 24 hours at 20° C. As to the method: (§1) Soft drinks were contaminated with the respective stated microorganisms. The active compound concentration required for disinfecting the beverages was determined by sterilization tests.
(§2) Nutrient Media: Yeast orange serum agar (from Oxoid CM657)
(§3) Substances: The substances used were employed neat or as ethanolic or butanolic solutions (for example 2.0% by volume) or suspensions. Dimethyl dicarbonate, Na benzoate, K sorbate, sorbic anhydride and benzoic anhydride were synthesized by known methods or were commercially available. The respective solutions were in each case freshly prepared (alcoholysis). Apparatus: 50 ml tissue culture flasks from Greiner, gauze compresses from Holthans, Thoma counting chamber from Brand.
(§4) As a matter of principle, sterile reagents and apparatus were used. In addition to sterile disposable articles, the required apparatus and reagents were sterilized by suitable measures before use. Sterilization measures were heat treatment in a drying cabinet (at least 8 hours at about 120° C.) or in an autoclave (at least 15 minutes at about 120° C.).
(§5) Before the test was carried out, the beverage substrates were filled into tissue culture flasks. In general, the amount of beverage was 40 ml. Filling was carried out under sterile conditions. At this point in time, it was also possible for the persistent preservatives to be introduced.
(§6) The cultures, which were grown under optimum conditions (in tissue culture flasks from Greiner; 50 ml, 25 cm^2 or in oblique agar tubes), were wetted with up to 30 ml (depending on the test germ) of NaCl solution (if appropriate with addition of about 3 drops of Tween 80), rinsed off or, using glass beads (depending on the germ), scrubbed off intensively and, if required, filtered. Alternatively, it was also possible to employ fluid cultures. Using a microscope and a Thoma chamber, it was possible to carry out a preliminary determination of the germ number. An accurate determination of the germ number of the germ solution used was carried out using the Koch inoculation plate method.
(§7) Depending on the given germ seed (for example 50-500 germs/ml of substrate), the appropriate volume of germ solution (original or dilution) were added and the sample was shaken intensively.
(§8) The doses of active compound, added as pure substance or as appropriate alcoholic solution or suspension in the case of dimethyl dicarbonate and the carboxylic anhydrides, were then added. For a period of about 20 seconds, the samples were immediately shaken intensively.
(§9) The beverage samples were stored at a cultivation temperature of 26° C.±2° C.
(§10) In the case of formerly clear beverages, clouding indicates contamination. In the case of cloudy fruit pulp-containing beverages, visual evaluation was not always possible. Accordingly, in these cases evaluation was carried out as a germ number determination in agar.
The tests were carried out as stated in Example 1.

For assay [1], the system named is Mixture of different problem yeasts from a beverage filling unit. As to the kind of experiment: Sterilization test in contaminated apple juice against yeast mix. As to Visual evaluation after 4 weeks: key: − = not fermented; + = fermented. Conditions: germ seed 56.000 cfu/ml. As to the method: as §1, §2, §3, §4, §5, §6, §7, §8, §9, §10
The tests were carried out as Stated in Example 1.

Assay [2] shares this test system. The assay is described as above. The conditions noted are these: contact time 24 hours at 20° C., germ seed 56.000 cfu/ml.
The mark [3] stands for this setting: 100 mg/l, pH 3.5, apple juice, germ seed 56 000 cfu/ml.
Setting [4] is: 150 mg/l, pH 3.5, apple juice, germ seed 56 000 cfu/ml.
Setting [5] is: 150 mg/l, pH 6.0, apple juice, germ seed 56 000 cfu/ml.
Where [6] appears, read: 250 mg/l, pH 3.5, apple juice, germ seed 56 000 cfu/ml.
Setting [7] is: 250 mg/l, pH 6.0, apple juice, germ seed 56 000 cfu/ml.
The mark [8] stands for this setting: Table 2: 250 mg/l, apple juice, germ seed 56.000 cfu/ml.
Setting [9] is: 177 mg/l, pH 3.5, apple juice, germ seed 56 000 cfu/ml.
Setting [10] is: 177 mg/l, pH 6.0, apple juice, germ seed 56 000 cfu/ml.
The mark [11] stands for this setting: Table 2: 177 mg/l, apple juice, germ seed 56.000 cfu/ml.
Where [12] appears, read: Table 2: 50 mg/l, apple juice, germ seed 56.000 cfu/ml.
The mark [13] stands for this setting: Table 2: 100 mg/l, apple juice, germ seed 56.000 cfu/ml.

For `O=C(OC(=O)c1ccccc1)c1ccccc1` [Benzoic anhydride, benzoic anhydride], the “Germ number after 24 h (carried out in duplicate)” value (from here on “Germ number after 24 h”) is given as less than 10 in the assay on Saccharomyces cerevisiae (setting [3]); less than 10 in the assay on Saccharomyces cerevisiae (setting [4]); “about 10” in the assay on Saccharomyces cerevisiae (setting [5]); less than 10 with Saccharomyces cerevisiae (setting [6]); less than 10 in the assay on Saccharomyces cerevisiae (setting [7]). Also, the “Visual evaluation after 4 weeks” value is given as “−” in the assay with Saccharomyces cerevisiae (setting [3]); “+” with Saccharomyces cerevisiae (100 mg/l, pH 6.0, apple juice, germ seed 56 000 cfu/ml); “−” in the assay on Saccharomyces cerevisiae (setting [4]); “+” with Saccharomyces cerevisiae (setting [5]); “−” in the assay on Saccharomyces cerevisiae (setting [6]); “−” in the assay on Saccharomyces cerevisiae (setting [7]).

With `COC(=O)OC(=O)OC` [Dimethyl dicarbonate, reference compound], the “Germ number after 24 h” value in assay [1] (250 mg/l, contact time 24 hours at 20° C.) is 6.8 × 10^6 and 5.7 × 10^6; in the assay on Saccharomyces cerevisiae (setting [8]), less than 10. The “Visual evaluation after 4 weeks” value (in assay [1] (250 mg/l); in the assay on Saccharomyces cerevisiae (setting [6]); in the assay on Saccharomyces cerevisiae (setting [7]); with Saccharomyces cerevisiae (setting [8])) was “+” in each case.

In the case of `O=C([O-])c1ccccc1.[Na+]` [Na benzoate, Sodium benzoate, reference compound], the “Germ number after 24 h” value was 1.3 × 10^5 and 1.1 × 10^5 in assay [2] (177 mg/l); 6.8 × 10^5 and 5.3 × 10^5 in the assay with Saccharomyces cerevisiae (setting [9]); 2.6 × 10^6 and 2.2 × 10^6 in the assay with Saccharomyces cerevisiae (setting [10]); 1.3 × 10^5 and 1.1 × 10^5 in the assay with Saccharomyces cerevisiae (setting [11]). For the same compound, the “Visual evaluation after 4 weeks” value (in assay [1] (177 mg/l); in the assay with Saccharomyces cerevisiae (setting [9]); with Saccharomyces cerevisiae (setting [10]); in the assay on Saccharomyces cerevisiae (setting [11])) was “+” each time.

On to `C/C=C/C=C/C(=O)OC(=O)/C=C/C=C/C` [Sorbic anhydride, sorbic anhydride], for which the “Germ number after 24 h” value in assay [2] (50 mg/l) was 2.6 × 10^5 and 1.8 × 10^5; in assay [2] (100 mg/l) it was 9.2 × 10^4 and 9.4 × 10^4; in assay [2] (250 mg/l), 985 and 1080; in the assay on Saccharomyces cerevisiae (setting [12]), less than 10; with Saccharomyces cerevisiae (setting [13]), less than 10; with Saccharomyces cerevisiae (setting [8]), less than 10. Besides, the “Visual evaluation after 4 weeks” value is “+” in assay [1] (50 mg/l); “+” in assay [1] (100 mg/l); “−” in assay [1] (250 mg/l); “−” in the assay with Saccharomyces cerevisiae (setting [12]); “−” in the assay on Saccharomyces cerevisiae (setting [13]); “−” in the assay on Saccharomyces cerevisiae (setting [8]).

The record behind these values is patent US8207224B2, “Preservatives based on carboxylic anhydrides” (LANXESS Deutchland GmbH, priority 2006, dated 2012).
